Patent publication US8569344B2, “N-piperidinyl acetamide derivatives as calcium channel blockers” (Zalicus Pharmaceuticals Ltd., priority 2008, dated 2013)

Columns and labels:
[1] = molecular target: T1, human α1H T-type channels (Homo sapiens, UniProt O95180); test: T-type calcium channel block, whole cell patch clamp in HEK cells (α1H); assay type: cell-based; settings: HEK cells, patch clamp, mainly non-inactivated protocol; values above 10 μM shown as 10 μM; read-out: T-type Calcium Channel Block α1H IC50
T1 construct: expressed in transfected cells; host or cells: HEK 293

[2] = molecular target: T2, human α1G T-type channels (Homo sapiens, UniProt O43497); test: T-type calcium channel block, whole cell patch clamp in HEK cells (α1G); assay type: cell-based; settings: HEK cells, patch clamp, mainly non-inactivated protocol; values above 10 μM shown as 10 μM, below 0.30 μM shown as 0.30 μM; read-out: T-type Calcium Channel Block α1G IC50
T2 construct: expressed in transfected cells; host or cells: HEK 293
T2 sequence (O43497 whole entry): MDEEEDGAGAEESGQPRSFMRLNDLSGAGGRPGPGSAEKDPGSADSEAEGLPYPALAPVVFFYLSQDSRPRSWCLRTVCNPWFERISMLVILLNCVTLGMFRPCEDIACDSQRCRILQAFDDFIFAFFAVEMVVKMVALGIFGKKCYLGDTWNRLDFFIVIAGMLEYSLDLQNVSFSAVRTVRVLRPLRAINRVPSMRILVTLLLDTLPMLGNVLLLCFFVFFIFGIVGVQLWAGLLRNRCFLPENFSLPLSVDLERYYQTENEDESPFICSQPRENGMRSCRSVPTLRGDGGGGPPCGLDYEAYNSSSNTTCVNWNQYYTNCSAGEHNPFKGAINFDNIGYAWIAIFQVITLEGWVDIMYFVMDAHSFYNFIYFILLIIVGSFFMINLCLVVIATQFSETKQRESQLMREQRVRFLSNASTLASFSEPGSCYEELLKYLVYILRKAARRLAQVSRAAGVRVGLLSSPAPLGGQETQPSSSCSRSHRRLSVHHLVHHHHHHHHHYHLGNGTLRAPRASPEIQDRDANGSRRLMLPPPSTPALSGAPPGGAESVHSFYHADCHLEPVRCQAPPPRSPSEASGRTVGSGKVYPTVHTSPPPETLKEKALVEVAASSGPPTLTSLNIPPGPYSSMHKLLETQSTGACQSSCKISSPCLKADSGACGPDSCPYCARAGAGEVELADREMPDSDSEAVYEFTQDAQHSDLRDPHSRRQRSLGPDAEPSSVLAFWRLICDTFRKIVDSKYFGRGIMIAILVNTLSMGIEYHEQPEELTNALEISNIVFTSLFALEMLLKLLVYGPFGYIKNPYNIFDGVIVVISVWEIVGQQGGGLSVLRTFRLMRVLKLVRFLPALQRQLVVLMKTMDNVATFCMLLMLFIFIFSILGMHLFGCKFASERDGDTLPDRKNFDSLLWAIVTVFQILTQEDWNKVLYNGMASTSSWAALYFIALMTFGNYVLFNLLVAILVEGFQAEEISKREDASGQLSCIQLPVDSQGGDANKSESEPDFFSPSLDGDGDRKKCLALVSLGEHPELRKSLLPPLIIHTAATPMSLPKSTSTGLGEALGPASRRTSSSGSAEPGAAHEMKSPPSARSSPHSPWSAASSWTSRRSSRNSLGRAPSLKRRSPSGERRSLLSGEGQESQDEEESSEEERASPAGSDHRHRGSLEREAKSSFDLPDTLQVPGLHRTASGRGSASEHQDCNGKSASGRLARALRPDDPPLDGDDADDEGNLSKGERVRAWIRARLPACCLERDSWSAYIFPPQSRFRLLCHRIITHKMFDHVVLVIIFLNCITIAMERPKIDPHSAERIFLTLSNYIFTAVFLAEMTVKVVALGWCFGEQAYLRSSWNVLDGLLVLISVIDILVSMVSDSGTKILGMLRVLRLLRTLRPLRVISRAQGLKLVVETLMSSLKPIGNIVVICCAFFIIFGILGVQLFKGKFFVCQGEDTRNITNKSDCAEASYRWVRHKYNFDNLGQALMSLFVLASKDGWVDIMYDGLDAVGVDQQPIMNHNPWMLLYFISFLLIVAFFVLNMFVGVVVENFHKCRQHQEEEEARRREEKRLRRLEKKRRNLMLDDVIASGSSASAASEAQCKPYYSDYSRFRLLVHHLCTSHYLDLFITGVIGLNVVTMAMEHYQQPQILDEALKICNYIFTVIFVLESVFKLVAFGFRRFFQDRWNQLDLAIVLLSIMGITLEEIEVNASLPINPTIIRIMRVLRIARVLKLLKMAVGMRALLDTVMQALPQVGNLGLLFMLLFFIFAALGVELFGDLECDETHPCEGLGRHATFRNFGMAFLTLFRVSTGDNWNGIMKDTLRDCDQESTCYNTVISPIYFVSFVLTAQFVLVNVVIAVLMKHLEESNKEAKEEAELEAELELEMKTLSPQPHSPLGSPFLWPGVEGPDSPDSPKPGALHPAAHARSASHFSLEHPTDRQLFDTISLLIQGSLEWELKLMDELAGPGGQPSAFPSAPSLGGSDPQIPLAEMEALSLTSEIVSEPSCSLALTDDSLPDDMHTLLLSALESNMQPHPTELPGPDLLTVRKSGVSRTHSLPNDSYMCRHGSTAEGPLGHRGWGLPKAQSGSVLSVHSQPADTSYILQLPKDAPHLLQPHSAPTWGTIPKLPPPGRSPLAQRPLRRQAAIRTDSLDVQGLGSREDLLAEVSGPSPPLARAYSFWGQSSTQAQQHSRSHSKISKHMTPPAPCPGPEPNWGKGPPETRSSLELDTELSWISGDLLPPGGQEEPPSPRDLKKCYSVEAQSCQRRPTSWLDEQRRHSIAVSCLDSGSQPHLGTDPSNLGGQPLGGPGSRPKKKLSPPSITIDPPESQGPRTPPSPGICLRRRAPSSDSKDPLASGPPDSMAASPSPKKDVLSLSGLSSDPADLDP

T1 sequence (O95180 whole entry): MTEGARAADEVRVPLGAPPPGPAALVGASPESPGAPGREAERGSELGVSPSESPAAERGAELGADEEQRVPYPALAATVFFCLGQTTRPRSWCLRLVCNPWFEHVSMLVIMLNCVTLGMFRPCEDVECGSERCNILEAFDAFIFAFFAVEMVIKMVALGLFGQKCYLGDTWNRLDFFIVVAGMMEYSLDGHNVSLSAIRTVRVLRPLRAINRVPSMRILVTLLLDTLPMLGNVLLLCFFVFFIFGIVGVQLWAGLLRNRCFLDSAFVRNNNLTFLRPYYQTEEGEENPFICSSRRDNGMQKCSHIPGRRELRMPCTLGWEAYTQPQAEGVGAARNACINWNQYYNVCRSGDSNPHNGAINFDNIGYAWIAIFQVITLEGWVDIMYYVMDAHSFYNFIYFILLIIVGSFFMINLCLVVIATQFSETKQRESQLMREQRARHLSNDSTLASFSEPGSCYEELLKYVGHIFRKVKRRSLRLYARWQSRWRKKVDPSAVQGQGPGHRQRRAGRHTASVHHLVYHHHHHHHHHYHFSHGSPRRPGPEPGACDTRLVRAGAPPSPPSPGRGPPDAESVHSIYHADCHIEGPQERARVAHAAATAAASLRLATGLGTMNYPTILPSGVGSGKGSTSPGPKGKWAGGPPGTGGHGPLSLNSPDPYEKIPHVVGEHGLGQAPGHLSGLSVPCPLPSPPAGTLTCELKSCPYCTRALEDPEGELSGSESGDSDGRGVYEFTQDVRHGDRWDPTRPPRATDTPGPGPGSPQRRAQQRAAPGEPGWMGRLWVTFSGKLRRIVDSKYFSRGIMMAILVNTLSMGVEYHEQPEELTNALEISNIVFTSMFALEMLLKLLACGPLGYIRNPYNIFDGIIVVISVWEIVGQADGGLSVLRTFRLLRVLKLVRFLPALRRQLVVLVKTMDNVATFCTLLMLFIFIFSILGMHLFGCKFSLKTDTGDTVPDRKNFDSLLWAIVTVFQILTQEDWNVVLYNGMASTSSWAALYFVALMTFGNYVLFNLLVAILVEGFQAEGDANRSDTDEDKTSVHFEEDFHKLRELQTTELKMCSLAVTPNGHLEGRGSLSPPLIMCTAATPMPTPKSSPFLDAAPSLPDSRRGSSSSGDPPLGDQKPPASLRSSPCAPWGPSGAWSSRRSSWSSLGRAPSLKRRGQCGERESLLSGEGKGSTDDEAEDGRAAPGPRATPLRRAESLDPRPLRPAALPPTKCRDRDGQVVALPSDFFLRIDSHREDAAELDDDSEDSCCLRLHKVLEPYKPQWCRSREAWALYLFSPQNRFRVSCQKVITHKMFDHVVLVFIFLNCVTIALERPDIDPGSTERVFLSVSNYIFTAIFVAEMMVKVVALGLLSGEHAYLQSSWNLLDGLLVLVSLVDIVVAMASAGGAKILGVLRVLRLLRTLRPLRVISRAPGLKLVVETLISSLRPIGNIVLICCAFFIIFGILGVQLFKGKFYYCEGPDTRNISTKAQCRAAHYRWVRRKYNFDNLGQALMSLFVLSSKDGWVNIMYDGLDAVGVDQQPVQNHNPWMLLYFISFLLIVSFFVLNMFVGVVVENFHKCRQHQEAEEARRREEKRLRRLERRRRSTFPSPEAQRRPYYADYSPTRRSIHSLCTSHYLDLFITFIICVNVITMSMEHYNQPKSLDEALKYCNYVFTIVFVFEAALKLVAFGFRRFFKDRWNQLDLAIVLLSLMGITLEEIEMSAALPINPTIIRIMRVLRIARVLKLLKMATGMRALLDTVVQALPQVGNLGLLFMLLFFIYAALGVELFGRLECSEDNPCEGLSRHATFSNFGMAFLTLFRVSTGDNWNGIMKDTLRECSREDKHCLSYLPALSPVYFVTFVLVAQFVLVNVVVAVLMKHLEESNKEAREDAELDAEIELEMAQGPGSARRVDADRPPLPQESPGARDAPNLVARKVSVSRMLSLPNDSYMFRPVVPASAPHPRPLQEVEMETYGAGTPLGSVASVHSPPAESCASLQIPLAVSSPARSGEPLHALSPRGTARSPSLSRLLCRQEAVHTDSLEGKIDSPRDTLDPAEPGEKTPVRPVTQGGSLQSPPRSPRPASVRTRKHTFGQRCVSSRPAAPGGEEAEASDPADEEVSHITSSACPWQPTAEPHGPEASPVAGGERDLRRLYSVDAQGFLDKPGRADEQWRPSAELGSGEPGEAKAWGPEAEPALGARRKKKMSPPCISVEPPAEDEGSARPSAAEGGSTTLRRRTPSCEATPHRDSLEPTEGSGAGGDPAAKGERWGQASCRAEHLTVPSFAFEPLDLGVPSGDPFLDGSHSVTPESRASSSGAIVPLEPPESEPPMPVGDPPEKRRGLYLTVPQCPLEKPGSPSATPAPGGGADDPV

Compound | IC50 [1] [nM] | IC50 [2] [nM]
CC1(NC(=O)CN2CCC(CNC(=O)c3cccc(OC(F)(F)F)c3)CC2)CCC1 [Compound 483, N-((1-(2-(1-methylcyclobutylamino)-2-oxoethyl)piperidin-4-yl)methyl)-3-(trifluoromethoxy)benzamide] | 110 | < 300
NC1(C(=O)NCCN2CCC(CNC(=O)c3cc(F)cc(C(F)(F)F)c3)CC2)CCC1 [Compound 571, N-((1-(2-(1-aminocyclobutanecarboxamido)ethyl)piperidin-4-yl)methyl)-3-fluoro-5-(trifluoromethyl) benzazmide] | > 10000 | > 10000
CC(C)(C#N)NC(=O)CN1CCC(CNC(=O)c2cc(C(F)(F)F)cc(C(F)(F)F)c2)CC1 [Compound 304, N-((1-(2-(2-cyanopropan-2-ylamino)-2-oxoethyl)piperidin-4-yl)methyl)-3,5-bis(trifluoromethyl)benzamide] | 370 | < 300
CC(C)S(=O)(=O)NCCN1CCC(CNC(=O)c2cccc(Br)c2)CC1 [Compound 386, 3-bromo-N-((1-(2-(1-methylethylsulfonamido)ethyl)piperidin-4-yl)methyl)benzamide] | 490 | 870
CCC1CCCCN1CC(=O)N1CCC(CNC(=O)c2cc(C(F)(F)F)cc(C(F)(F)F)c2)CC1 (stereo not drawn) [Compound 243, N-((1-(2-(2-ethylpiperidin-1-yl)acetyl)piperidin-4-yl)methyl)-3,5-bis(trifluoromethyl)benzamide] | 810 | 530
O=C(NCC1CCN(CC2(NS(=O)(=O)C3CC3)CCCC2)CC1)c1cc(C(F)(F)F)cc(C(F)(F)F)c1 [Compound 2, N-((1-((1-(cyclopropanesulfonamido)cyclopentyl)methyl)piperidin-4-yl)methyl)-3,5-bis(trifluoromethyl)benzamide] | 540 | < 300
CC(C)(C)NC(=O)CN1CCC(CNC(=O)/C=C/c2cc(Cl)cc(Cl)c2)CC1 [Compound 378, (E)-N-((1-(2-(tert-butylamino)-2-oxoethyl)piperidin-4-yl)methyl)-3-(3,5-dichlorophenyl)acrylamide] | 1440 | 1600
CCCCCNCC(=O)N1CCC(CNC(=O)c2cc(F)cc(C(F)(F)F)c2)CC1 [Compound 267, 3-fluoro-N-((1-(2-(pentylamino)acetyl)piperidin-4-yl)methyl)-5-(trifluoromethyl)benzamide] | 870 | 390
CC1(NC(=O)CN2CCC(CNC(=O)c3ccccc3)CC2)CCC1 [Compound 528, N-((1-(2-(1-methylcyclobutylamino)-2-oxoethyl)piperidin-4-yl)methyl) benzamide] | 8540 | > 10000
CC(C)(C)OC(=O)NCCN1CCC(CNC(=O)c2cccc(OC(F)(F)F)c2)CC1 [Compound 44, tert-butyl 2-(4-((3-(trifluoromethoxy)benzamido)methyl)piperidin-1-yl)ethylcarbamate] | 320 | 620
Cc1cc(C)cc(C(=O)NCC2CCN(CCNC(=O)C(C)(C)C)CC2)c1 [Compound 295, 3,5-dimethyl-N-((1-(2-pivalamidoethyl)piperidin-4-yl)methyl)benzamide] | 1260 | 1340
CCS(=O)(=O)NC1(CN2CCC(CNC(=O)c3cc(C(F)(F)F)cc(C(F)(F)F)c3)CC2)CC1 [Compound 358, N-((1-((1-(ethylsulfonamido)cyclopropyl)methyl)piperidin-4-yl)methyl)-3,5-bis(trifluoromethyl)benzamide] | 530 | 520
O=C(NCC1CCN(CCNS(=O)(=O)C(F)(F)F)CC1)c1cccc(Br)c1 [Compound 330, 3-bromo-N-((1-(2-(trifluoromethylsulfonamido)ethyl)piperidin-4-yl)methyl)benzamide] | > 10000 | > 10000
CN(C(=O)CN1CCC(CNC(=O)c2cc(F)cc(Cl)c2)CC1)C(C)(C)C(F)(F)F [Compound 579, 3-chloro-5-fluoro-N-((1-(2-(methyl (1,1,1-trifluoro-2-methylpropan-2-yl)amino)-2-oxoethyl)piperidin-4-yl)methyl)benzamide] | 50 | < 300
CC1(NC(=O)CN2CCC(CNC(=O)c3cccc(C(F)(F)F)c3)CC2)CCC1 [Compound 479, N-((1-(2-(1-methylcyclobutylamino)-2-oxoethyl)piperidin-4-yl)methyl)-3-(trifluoromethyl)benzamide] | 150 | < 300
CC(C)(F)CNC(=O)CN1CCC(CNC(=O)c2cc(F)cc(C(F)(F)F)c2)CC1 [Compound 556, 3-fluoro-N-((1-(2-(2-fluoro-2-methylpropylamino)-2-oxoethyl)piperidin-4-yl)methyl)-5-(trifluoromethyl)benzamide] | 1770 | 1370
O=C(NCC1CCN(C(=O)CNCCCN2CCOCC2)CC1)c1cc(C(F)(F)F)cc(C(F)(F)F)c1 [Compound 244, N-((1-(2-(3-morpholinopropylamino)acetyl)piperidin-4-yl)methyl)-3,5-bis(trifluoromethyl)benzamide] | > 10000 | 7190
CS(=O)(=O)c1cc(C(=O)NCC2CCN(CCNC(=O)C3(C(F)(F)F)CCC3)CC2)cc(C(F)(F)F)c1 [Compound 586, 3-(methylsulfonyl)-5-(trifluoro-methyl)-N-((1-(2-(1-(trifluoromethyl)cyclobutane-carboxamido)ethyl)piperidin-4-yl)methyl)benzamide] | 4800 | > 10000
O=C(NCC1CCN(CC(=O)N2CCC(F)CC2)CC1)c1cc(C(F)(F)F)cc(C(F)(F)F)c1 [Compound 349, N-((1-(2-(4-fluoropiperidin-1-yl)-2-oxoethyl)piperidin-4-yl)methyl)-3,5-bis(trifluoromethyl)benzamide] | 300 | < 300
CCCNC(=O)CN1CCC(CNC(=O)c2cc(F)cc(OC)c2)CC1 [Compound 447, 3-fluoro-5-methoxy-N-((1-(2-oxo-2-(propylamino)ethyl)piperidin-4-yl)methyl)benzamide] | 3080 | 9150
O=C(NC1CCCCC1)OCCN1CCC(CNC(=O)c2cc(F)cc(C(F)(F)F)c2)CC1 [Compound 530, 2-(4-((3-fluoro-5-(trifluoromethyl)benzamido)methyl)piperidin-1-yl)ethyl cyclohexylcarbamate] | 860 | 590
CCC1CCCN1CC(=O)N1CCC(CNC(=O)c2cc(C(F)(F)F)cc(C(F)(F)F)c2)CC1 (stereo not drawn) [Compound 253, N-((1-(2-(2-ethylpyrrolidin-1-yl)acetyl)piperidin-4-yl)methyl)-3,5-bis(trifluoromethyl)benzamide] | 1310 | 480
O=C(/C=C/c1cc(Cl)cc(Cl)c1)NCC1CCN(CCNC(=O)CCC(F)(F)F)CC1 [Compound 316, (E)-N-(2-(4-((3-(3,5-dichlorophenyl)acrylamido)methyl)piperidin-4-1-yl)ethyl)-4,4,4-trifluorobutanamide] | 5830 | > 10000
O=C(NCC1CCN(CCNS(=O)(=O)C2CC2)CC1)c1cc(C(F)(F)F)cc(C(F)(F)F)c1 [Compound 19, N-((1-(2-(cyclopropanesulfonamido)ethyl)piperidin-4-yl)methyl)-3,5-bis(trifluoromethyl)benzamide] | 740 | 1740
